Converted amounts (≈) assume the structure as drawn. Read-outs that look alike come from different tables or passages of the source.
How the values were obtained:
Assay in all cases: In vitro activity against fastidious bacteria
Type in all cases: cell-based
[1] = test system: H. influenzae A20177; details: Haemophilus influenzae; H. influenzae A20177; ampicillin-sensitive (ABPC-S); read-out: MIC
Source text: (§1) Table 5 contains comparative data for in vitro antibacterial activity against fastidious bacteria.

[2] = test system: H. influenzae A20193; details: Haemophilus influenzae; H. influenzae A20193; ampicillin-sensitive (ABPC-S); read-out: MIC
Source text: as §1

[3] = test system: H. influenzae A21523; details: Haemophilus influenzae; H. influenzae A21523; ampicillin-sensitive (ABPC-S); read-out: MIC
Source text: as §1

[4] = test system: H. influenzae A22157; details: Haemophilus influenzae, ampicillin-resistant (ABPC-R)
Source text: as §1

[5] = test system: H. influenzae A22481; details: Haemophilus influenzae, ampicillin-resistant (ABPC-R)
Source text: as §1

[6] = test system: H. influenzae A22482; details: Haemophilus influenzae
Source text: as §1

[7] = test system: H. influenzae A22483; details: Haemophilus influenzae
Source text: as §1

[8] = test system: H. influenzae A22491; details: Haemophilus influenzae, ampicillin-resistant (ABPC-R)
Source text: as §1

[9] = test system: H. influenzae A9729; details: Haemophilus influenzae; H. influenzae A9729; ampicillin-sensitive (ABPC-S); read-out: MIC
Source text: as §1

[10] = test system: H. influenzae A9833; details: Haemophilus influenzae; H. influenzae A9833; ampicillin-sensitive (ABPC-S); read-out: MIC
Source text: as §1

[11] = test system: N. gonorrheae A15112; details: N. gonorrheae A15112; read-out: MIC
Source text: as §1

[12] = test system: N. gonorrheae A20143; details: N. gonorrheae A20143; read-out: MIC
Source text: as §1

[13] = test system: N. gonorrheae A20154; details: N. gonorrheae A20154; read-out: MIC
Source text: as §1

[14] = test system: N. gonorrheae A20155; details: N. gonorrheae A20155; read-out: MIC
Source text: as §1

[15] = test system: N. meningitidis A20048; details: Neisseria meningitidis; N. meningitidis A20048; read-out: MIC
Source text: as §1

[16] = test system: N. meningitidis A20049; details: Neisseria meningitidis; N. meningitidis A20049; read-out: MIC
Source text: as §1

[17] = test system: N. meningitidis A21487; details: Neisseria meningitidis; N. meningitidis A21487; read-out: MIC
Source text: as §1

[18] = test system: N. meningitidis A21495; details: Neisseria meningitidis; N. meningitidis A21495; read-out: MIC
Source text: as §1

[19] = test system: N. meningitidis A21497; details: Neisseria meningitidis; N. meningitidis A21497; read-out: MIC
Source text: as §1

[20] = test system: S. pneumoniae A15069; details: Streptococcus pneumoniae; S. pneumoniae A15069; read-out: MIC
Source text: as §1

[21] = test system: S. pneumoniae A20759; details: Streptococcus pneumoniae; S. pneumoniae A20759; read-out: MIC
Source text: as §1

[22] = test system: S. pneumoniae A9585; details: Streptococcus pneumoniae; S. pneumoniae A9585; read-out: MIC
Source text: as §1

[23] = test system: S. pneumoniae Type III; details: Streptococcus pneumoniae; S. pneumoniae Type III; read-out: MIC
Source text: as §1

[24] = test system: S. pneumoniae Type II; details: Streptococcus pneumoniae; S. pneumoniae Type II; read-out: MIC
Source text: as §1

[25] = test system: S. pneumoniae Type I; details: Streptococcus pneumoniae; S. pneumoniae Type I; read-out: MIC
Source text: as §1

[26] = test system: S. pyogenes A15040; details: Streptococcus pyogenes; S. pyogenes A15040; read-out: MIC
Source text: as §1

[27] = test system: S. pyogenes A20065; details: Streptococcus pyogenes; S. pyogenes A20065; read-out: MIC
Source text: as §1

[28] = test system: S. pyogenes A20201; details: Streptococcus pyogenes; S. pyogenes A20201; read-out: MIC
Source text: as §1

[29] = test system: S. pyogenes A9604; details: Streptococcus pyogenes; S. pyogenes A9604; read-out: MIC
Source text: as §1

[30] = test system: S. pyogenes Dick; details: Streptococcus pyogenes; S. pyogenes Dick; read-out: MIC
Source text: as §1

[31] = test system: S. pyogenes s-23; details: Streptococcus pyogenes, S23; S. pyogenes s-23; read-out: MIC
Source text: as §1

## C/C=C\C1=C(C(=O)O)N2C(=O)C(NC(=O)[C@H](N)c3cccc(O)c3)[C@H]2SC1 (some centres unmarked) [BMY-28272, 7-[(D)-2-amino-2-(3-hydroxyphenyl)acetamido]-3-[(Z)-1-propenyl]-3-cephem-4-carboxylic acid]
[1]
  MIC: 0.8 µg/mL (≈ 2.05 µM)
[2]
  MIC: 0.8 µg/mL (≈ 2.05 µM)
[3]
  MIC: 0.8 µg/mL (≈ 2.05 µM)
[4]
  MIC: 0.4 µg/mL (≈ 1.03 µM)
[5]
  MIC: 0.8 µg/mL (≈ 2.05 µM)
[6]; A22482
  MIC: 0.4 µg/mL (≈ 1.03 µM)
[7]; A22483
  MIC: 0.4 µg/mL (≈ 1.03 µM)
[8]
  MIC: 0.8 µg/mL (≈ 2.05 µM)
[9]
  MIC: 0.4 µg/mL (≈ 1.03 µM)
[10]
  MIC: 0.4 µg/mL (≈ 1.03 µM)
[11]
  MIC: 0.4 µg/mL (≈ 1.03 µM)
[12]
  MIC: 0.8 µg/mL (≈ 2.05 µM)
[13]
  MIC: 0.8 µg/mL (≈ 2.05 µM)
[14]
  MIC: 0.4 µg/mL (≈ 1.03 µM)
[15]
  MIC: 0.8 µg/mL (≈ 2.05 µM)
[16]
  MIC: 0.8 µg/mL (≈ 2.05 µM)
[17]
  MIC: 0.8 µg/mL (≈ 2.05 µM)
[18]
  MIC: 0.4 µg/mL (≈ 1.03 µM)
[19]
  MIC: 0.4 µg/mL (≈ 1.03 µM)
[20]
  MIC: 0.4 µg/mL (≈ 1.03 µM)
[21]
  MIC: 0.4 µg/mL (≈ 1.03 µM)
[22]
  MIC: 0.1 µg/mL (≈ 0.257 µM)
[23]
  MIC: 0.4 µg/mL (≈ 1.03 µM)
[24]
  MIC: 0.1 µg/mL (≈ 0.257 µM)
[25]
  MIC: 0.1 µg/mL (≈ 0.257 µM)
[26]
  MIC: 0.05 µg/mL (≈ 0.128 µM)
[27]
  MIC: 0.05 µg/mL (≈ 0.128 µM)
[28]
  MIC: 0.05 µg/mL (≈ 0.128 µM)
[29]
  MIC: 0.05 µg/mL (≈ 0.128 µM)
[30]
  MIC: 0.05 µg/mL (≈ 0.128 µM)
[31]
  MIC: 0.05 µg/mL (≈ 0.128 µM)

## C/C=C\C1=C(C(=O)O)N2C(=O)C(NC(=O)[C@H](N)c3ccc(O)cc3)[C@H]2SC1 (stereo partly drawn) [BMY-28100, 7-[D-2-amino-2-(4-hydroxyphenyl)acetamido]-3-[(Z)-1-propen-1-yl]-3-cephem-4-carboxylic acid]
[1]
  MIC: 0.8 µg/mL (≈ 2.05 µM)
[2]
  MIC: 0.8 µg/mL (≈ 2.05 µM)
[3]
  MIC: 0.8 µg/mL (≈ 2.05 µM)
[4]
  MIC: 0.8 µg/mL (≈ 2.05 µM)
[5]
  MIC: 0.8 µg/mL (≈ 2.05 µM)
[6]; H. influenzae A22482, ampicillin-sensitive (ABPC-S), read-out: MIC
  MIC: 0.8 µg/mL (≈ 2.05 µM)
[7]; H. influenzae A22483, ampicillin-sensitive (ABPC-S), read-out: MIC
  MIC: 0.8 µg/mL (≈ 2.05 µM)
[8]
  MIC: 0.8 µg/mL (≈ 2.05 µM)
[9]
  MIC: 0.8 µg/mL (≈ 2.05 µM)
[10]
  MIC: 0.8 µg/mL (≈ 2.05 µM)
[11]
  MIC: 0.8 µg/mL (≈ 2.05 µM)
[12]
  MIC: 0.8 µg/mL (≈ 2.05 µM)
[13]
  MIC: 0.8 µg/mL (≈ 2.05 µM)
[14]
  MIC: 0.8 µg/mL (≈ 2.05 µM)
[15]
  MIC: 0.4 µg/mL (≈ 1.03 µM)
[16]
  MIC: 0.4 µg/mL (≈ 1.03 µM)
[17]
  MIC: 0.4 µg/mL (≈ 1.03 µM)
[18]
  MIC: 0.4 µg/mL (≈ 1.03 µM)
[19]
  MIC: 0.4 µg/mL (≈ 1.03 µM)
[20]
  MIC: 0.4 µg/mL (≈ 1.03 µM)
[21]
  MIC: 0.4 µg/mL (≈ 1.03 µM)
[22]
  MIC: 0.1 µg/mL (≈ 0.257 µM)
[23]
  MIC: 0.2 µg/mL (≈ 0.514 µM)
[24]
  MIC: 0.1 µg/mL (≈ 0.257 µM)
[25]
  MIC: 0.1 µg/mL (≈ 0.257 µM)
[26]
  MIC: 0.05 µg/mL (≈ 0.128 µM)
[27]
  MIC: 0.05 µg/mL (≈ 0.128 µM)
[28]
  MIC: 0.05 µg/mL (≈ 0.128 µM)
[29]
  MIC: 0.05 µg/mL (≈ 0.128 µM)
[30]
  MIC: 0.05 µg/mL (≈ 0.128 µM)
[31]
  MIC: 0.05 µg/mL (≈ 0.128 µM)

Reference: patent US4619925A, “3-Propenyl cephalosporin derivatives” (priority 1985, dated 1986)
